Consider 13 compounds from patent US20080045498A1, “[…] INHIBITORS” (Genelabs Technologies, Inc., priority 2006, published 2008).

The subject of the test is HCV RNA dependent RNA polymerase. The test can be described thus: HCV replicon assay (luciferase, Huh-lucubineo-ET cells). The following applies: Hepatitis C virus; tested at 25 μM; ET (Huh-lucubineo-ET) replicon cell line; luciferase activity measured 48-72 hours after compound addition; relative to no compound control. In kind it is cell-based. Here is the method: A cell line, ET (Huh-lucubineo-ET) was used for screening of compounds for inhibiting HCV RNA dependent RNA polymerase. The ET cell line was stably transfected with RNA transcripts harboring a I389luc-ubi-neo/NS3-3′/ET; replicon with firefly luciferase-ubiquitin-neomycin phosphotransferase fusion protein and EMCV-IRES driven NS3-5B polyprotein containing the cell culture adaptive mutations (E1202G; T1280I; K1846T) (Krieger at al, 2001 and unpublished). The ET cells were grown in DMEM (Dulbeco's Modified Eagle's Medium), supplemented with 10% fetal calf serum, 2 mM Glutamine, Penicillin (100 IU/mL)/Streptomycin (100 μg/mL), 1× nonessential amino acids, and 250 μg/mL G418 (“Geneticin”). Reagents are all available through Life Technologies (Bethesda, Md.). The cells were plated at 0.5−1.0×10^4 cells/well in the 96 well plates and incubated for 24 hrs before adding test compound. The compounds were added to the cells to achieve a final concentration of 0.1 nM to 50 μM and a final DMSO (dimethylsulfoxide) concentration of 0.5%. Luciferase activity was measured 48-72 hours later by adding a lysis buffer and the substrate (Catalog number Glo-lysis buffer E2661 and Bright-Glo luciferase system E2620 Promega, Madison, Wis.). Cells should not be too confluent during the assay. Percent inhibition of replication data is plotted relative to no compound control. Under the same condition, cytotoxicity of the compounds were determined using cell proliferation reagent, WST-1 (Roche, Germany). The compounds showing antiviral activities, but no significant cytotoxicities were chosen to determine EC50 and TC50 the effective concentration and toxic concentration at which 50% of the maximum inhibition is observed. For these determinations, a 10 point, 2-fold serial dilution for each compound was used, which spans a concentration range of 1000 fold. EC50 and similarly TC50 values were calculated by fitting % inhibition at each concentration to the following equation: % inhibition=100%/[(EC50/[I])b+1] where b is Hill's coefficient.
On the technique in general: A replicon is a self-replicating genome or part of one, used to study replication in cells.
`O=C(O)c1ccc2c(C3CCCCC3)c3n(c2c1)CCCCn1c-3cc2ccccc21` [Compound 228] returned an inhibition at 25 µM of 97%. In turn, `O=C(O)c1ccc2c(C3CCCCC3)c3n(c2c1)CCCCCn1c-3cc2ccccc21` [Compound 229] came in with an inhibition at 25 µM of 86%. `COc1ccc2cc3n(c2c1)CCCCn1c-3c(C2CCCCC2)c2ccc(C(=O)O)cc21` [Compound 235] registered an inhibition at 25 µM of 99%. For the compound `O=C(O)c1ccc2c(C3CCCCC3)c3n(c2c1)CCCCn1c-3cc2cc(OCc3ccccc3)ccc21` [Compound 231], the inhibition at 25 µM turned out to be 96%. With `O=C(O)c1ccc2c(C3CCCCC3)c3n(c2c1)CCCCn1c-3cc2ccc(O)cc21` [Compound 236], the inhibition at 25 µM turned out to be 100%.

The compound `O=C(O)c1ccc2c(C3CCCCC3)c3n(c2c1)CCCn1c-3nc2ccccc21` [Compound 225] yielded an inhibition at 25 µM of 7%. As to `O=C(O)c1ccc2c(C3CCCCC3)c3n(c2c1)CCCCn1c-3cc2ccc(OCc3ccccc3)cc21` [Compound 232], the inhibition at 25 µM is 91%. `Cc1nc(C)c(-c2ccc3c4c(ccc3n2)-c2c(C3CCCCC3)c3ccc(C(=O)O)cc3n2CC(=O)N4)s1` [Compound 237] showed an inhibition at 25 µM of 100%.

For the compound `O=C(O)c1ccc2c(C3CCCCC3)c3n(c2c1)CCCn1c-3cc2ccccc21` [Compound 227], the inhibition at 25 µM was determined as 94%.

For the compound `O=C(O)c1ccc2c(C3CCCCC3)c3n(c2c1)CCCCn1c-3nc2ccccc21` [Compound 226], 25 µM produced 23% inhibition. As to `COc1ccc2c(c1)cc1n2CCCCn2c-1c(C1CCCCC1)c1ccc(C(=O)O)cc12` [Compound 233], the inhibition at 25 µM was 96%. For the compound `O=C(O)c1ccc2c(C3CCCCC3)c3n(c2c1)CCCCn1c-3cc2cc(O)ccc21` [Compound 234], at 25 µM the inhibition was 99%.

Compound `O=C(O)c1ccc2c(C3CCCCC3)c3n(c2c1)CCCCn1c-3cc2c(OCc3ccccc3)cccc21` [Compound 230] returned an inhibition at 25 µM of 75%.

As usually defined, the inhibition is how much of the control response was suppressed. A lower inhibition goes with a response near the control.
